Format in all cases: cell-based
Test [1] deals with Staphylococcus aureus 209-P. Kind of test: Antibacterial activity (IC), Mueller-Hinton broth, 96-well microplate (Example 4, Table 39). Particulars: 37°C, 18 hours. The method, then: (§1) A suitable amount of a sample was dissolved in dimethylsulfoxide (DMSO), and the resultant solution was diluted with the same amount of sterilized distilled water to prepare a bulk sample of 1,000 µg/ml. Mueller-Hinton broth (product of DIFCO) was dispensed into each well of 96-well microplate. Thereafter, the bulk specimen was added to the first well of a row, and successively diluted (10-fold each time) with sterilized distilled water. Separately, a bacterial cell suspension for the test (Staphylococcus aureus 209-P) which had been cultured in the above-mentioned broth overnight at 37°C was inoculated to each well so that the final inoculation amount of 10^6 CFU/ml was attained. The final concentrations of the samples were 100, 10, and 1 µg/ml.
(§2) The antibacterial action was evaluated by the inhibitory concentration (hereinafter abbreviated as IC) at which propagation of the bacteria cultured at 37°C for 18 hours was inhibited. Inhibition was determined by the turbidity of the medium. The expressions "IC≤100", "≤10", and "≤1" indicate that MIC-equivalent values obtained at the succesive […] dilution of the sample are 100-10 µg/ml, 10-1 µg/ml, and not more than 1 µg/ml, respectively. […] (In the subsequent Examples, the same rule applies correspondingly.) Table 39

The test system of test [2] is Staphylococcus aureus TI-1. Kind of test: Antibacterial activity (IC), broth microplate as in Example 4 (Example 5, Table 40). The conditions noted are these: TI1, 18 h. The method, then: as §1, §2
In a manner similar to that described in Example 4, antibacterial activity of the invention compound was determined. The bacterium used for the test was Staphylococcus aureus TI-1.

Test [3] has as its system Staphylococcus aureus (209-P). Put plainly: Antibacterial activity (IC), agar as in Example 8 (Example 15, Table 48). Particulars: 18 h. The protocol:
as §2
(§3) A suitable amount of a sample was dissolved in dimethylsulfoxide (DMSO), after which the resulting solution was diluted with the same amount of sterilized distilled water to prepare a bulk sample of 1,000 µg/ml. Separately, a bacterial liquid for the test (methicillin-resistant Staphylococcus aureus (MRSA) isolated from humans) which had been cultured in Mueller-Hinton broth (product of DIFCO) was prepared and inoculated to a Mueller-Hinton agar (product of DIFCO) containing the sample so that the final inoculation amount of 10^6 CFU/ml was achieved. The final concentrations of the samples were 100, 10, and 1 µg/ml.
(§4) After culturing at 37°C for 18 hours, the antibacterial activity was evaluated in terms of IC in a manner similar to that described in Example 4.
The bacterium used for the test was Staphylococcus aureus (209-P).

Test [4] deals with Streptococcus aureus (TI-1). Put plainly: Antibacterial activity (IC), agar as in Example 8 (Example 16, Table 49). The conditions noted are these: 18 h. The protocol:
as §2, §3, §4
In a manner similar to that described in Example 8, antibacterial activity of the invention compound was determined. The bacterium used for the test was […] aureus (TI-1).

Converted amounts (≈) assume the structure as drawn.

In the case of `CC(Oc1ccc(Oc2ccc(C#N)cc2F)cc1)C(=O)C(C#N)c1ccccc1` (stereo not shown) [Compound No. 30], the MIC in test [1] and in test [2] was 10 to 100 µg/mL (≈ 25 to 250 µM) throughout. In the case of `CC(Oc1ccc(Oc2ncc(C(F)(F)F)cc2Cl)cc1)C(=O)C(C#N)c1c(F)cccc1F` (stereo not shown) [compound 28], the MIC in test [2] fell in the range of 10 to 100 µg/mL (≈ 20.1 to 201 µM). With `CC(Oc1ccc(Oc2ncc(C(F)(F)F)cc2Cl)cc1)C(=O)C(C#N)c1ccc(F)cc1F` (stereo not shown) [compound 25], the MIC in test [1] and in test [2] was 10 to 100 µg/mL (≈ 20.1 to 201 µM) in each case. For `CC(Oc1ccc(Oc2nc(Cl)c(Cl)cc2Cl)cc1)C(=O)C(C#N)c1ccc(Cl)cc1Cl` (stereo not shown) [compound 7], the results for the MIC in test [1] and in test [2] were 10 to 100 µg/mL (≈ 18.8 to 188 µM) and 1 to 10 µg/mL (≈ 1.88 to 18.8 µM), respectively. Regarding `CC(Oc1ccc(Oc2ccc(C#N)cc2F)cc1)C(=O)C(C#N)c1ccc(Cl)cc1Cl` (stereo not shown) [Compound No. 31], the MIC in test [1] and in test [2] was 10 to 100 µg/mL (≈ 21.3 to 213 µM) each time. In the case of `CC(Oc1ccc(Oc2ncc(C(F)(F)F)cc2Cl)cc1)C(=O)C(C#N)c1cccs1` (stereo not shown) [compound 19], the MIC in test [1] and in test [2] was 10 to 100 µg/mL (≈ 21.4 to 214 µM) in each case. Take `CC(Oc1cccc(Oc2ccc(C(F)(F)F)cc2Cl)c1)C(=O)C(C#N)C(=O)N1CCCCC1` (stereo not shown) [compound 208]: the MIC in test [3] and in test [4] was 1 to 10 µg/mL (≈ 2.02 to 20.2 µM) throughout. In the case of `CC(Oc1cc(Oc2ccc(C(F)(F)F)cc2Cl)ccc1Cl)C(=O)C(C#N)C(=O)N1CCCC1` (stereo not shown) [compound 169], the MIC in test [3] and in test [4] was 10 to 100 µg/mL (≈ 19.4 to 194 µM) in each case. For the compound `CC(Oc1ccc(Oc2ccc(C(F)(F)F)cc2Cl)cc1)C(=O)C(C#N)C(=O)N(C)c1ccccc1` (stereo not shown) [Compound No. 36, 4-[4-(2-chloro-4-trifluoromethylphenoxy)phenoxy]-2-methylphenylamidecarbonile-3-oxopentanitrile], in test [2], the MIC was 1 to 10 µg/mL (≈ 1.93 to 19.3 µM). Turning to `CC(Oc1cccc(Oc2ccc(C(F)(F)F)cn2)c1)C(=O)C(C#N)c1ccc(Cl)c(Cl)c1` (stereo not shown) [Compound No. 102, 2-(3,4-dichlorophenyl)-3-oxo-4-[3-(5-trifluoromethyl-2-pyridyloxy)phenoxy]pentanonitrile], the MIC in test [3] was 1 to 10 µg/mL (≈ 2.02 to 20.2 µM); in test [4], not above 1 µg/mL. Consider `CC(Oc1cc(Oc2ccc(C(F)(F)F)cc2Cl)ccc1Cl)C(=O)C(C#N)C(=O)N(C)c1ccccc1` (stereo not shown) [compound 175], for which the MIC in test [3] lay within 1 to 10 µg/mL (≈ 1.81 to 18.1 µM).

In the case of `CC(Oc1ccc(Oc2ncc(C(F)(F)F)cc2Cl)cc1)C(=O)C(C#N)c1ccccc1` (stereo not shown) [compound 18], the MIC lay in the range of 10 to 100 µg/mL (≈ 21.7 to 217 µM) in test [1] and 1 to 10 µg/mL (≈ 2.17 to 21.7 µM) in test [2]. With `COc1ccc(C(C#N)C(=O)C(C)Oc2cccc(Oc3ccc(C(F)(F)F)cc3Cl)c2)cc1` (stereo not shown) [Compound No. 107, 4-[3-(2-chloro-4-trifluoromethylphenoxy)-phenoxy]-2-(4-methoxyphenyl)-3-oxopentanonitrile], the MIC in test [3] and in test [4] was 10 to 100 µg/mL (≈ 20.4 to 204 µM) in each case. In turn, `CC(Oc1cc(Oc2ccc(C(F)(F)F)cc2Cl)ccc1Cl)C(=O)C(C#N)C(=O)N1CCOCC1` (stereo not shown) [compound 172] yielded an MIC in test [3] of 10 to 100 µg/mL (≈ 18.8 to 188 µM). Compound `CC(Oc1ccc(Oc2ncc(C(F)(F)F)cc2Cl)cc1)C(=O)C(C#N)C(=O)N1CCCc2ccccc21` (stereo not shown) [compound 40] displayed an MIC in test [1] of 10 to 100 µg/mL (≈ 18.4 to 184 µM). `CC(Oc1ccc(Oc2ncc(C(F)(F)F)cc2Cl)cc1)C(=O)C(C#N)c1c(F)cccc1Cl` (stereo not shown) [compound 24]: the MIC in test [1] and in test [2] was 10 to 100 µg/mL (≈ 19.5 to 195 µM) in each case. Consider `CC(Oc1ccc(Oc2nc3ccccc3s2)cc1)C(=O)C(C#N)c1ccc(Cl)cc1Cl` (stereo not shown) [Compound No. 11], for which the MIC in test [1] and in test [2] was 10 to 100 µg/mL (≈ 20.7 to 207 µM) in each case.

Turning to `CC(Oc1ccc(Oc2ccc([N+](=O)[O-])cc2F)cc1)C(=O)C(C#N)c1ccc(Cl)cc1Cl` (stereo not shown) [compound 29], the MIC in test [1] and in test [2] was 10 to 100 µg/mL (≈ 20.4 to 204 µM) each time. In test [1], `CC(Oc1ccc(Oc2ncc(C(F)(F)F)cc2Cl)cc1)C(=O)C(C#N)c1c(Cl)cccc1Cl` (stereo not shown) [compound 23] showed an MIC of 10 to 100 µg/mL (≈ 18.9 to 189 µM). In turn, `CCN(Cc1ccccc1)C(=O)C(C#N)C(=O)C(C)Oc1ccc(Oc2ncc(C(F)(F)F)cc2Cl)cc1` (stereo not shown) [compound 39] yielded an MIC in test [1] of 10 to 100 µg/mL (≈ 18.3 to 183 µM). Consider `CC(Oc1ccc(Oc2ncc(C(F)(F)F)cc2Cl)cc1)C(=O)C(C#N)c1nc(Cl)cc(Cl)n1` (stereo not shown) [compound 21], for which the minimal inhibitory concentration (MIC) in test [1] lay within 10 to 100 µg/mL (≈ 18.8 to 188 µM); in test [2] it was 1 to 10 µg/mL (≈ 1.88 to 18.8 µM).

Consider `N#CC(C(=O)COc1ccc(Oc2ccc(C(F)(F)F)cn2)cc1)c1cccc(Cl)c1` (stereo not shown) [Compound No. 13], for which the MIC in test [1] and in test [2] was 10 to 100 µg/mL (≈ 22.4 to 224 µM) each time.

For the compound `CC(Oc1cccc(Oc2ccc(C(F)(F)F)cc2Cl)c1)C(=O)C(C#N)c1cccc(Cl)c1` (stereo not shown) [compound 207], the MIC in test [3] and in test [4] was not above 1 µg/mL in each case. `CC(Oc1ccc(Oc2ncc(C(F)(F)F)cc2Cl)cc1)C(=O)C(C#N)C(=O)N(Cc1ccccc1)Cc1ccccc1` (stereo not shown) [Compound No. 38, 4-[4-(3-chloro-5-trifluoromethylpyridyloxy)phenoxy]-2-dibenzylamidecarbonile-3-oxopentanitrile] came in with a minimal inhibitory concentration (MIC) in test [1] of 1 to 10 µg/mL (≈ 1.64 to 16.4 µM).

In the case of `N#CC(C(=O)COc1ccc(Oc2ncc(C(F)(F)F)cc2Cl)cc1)c1cccc(Cl)c1` (stereo not shown) [compound 12], the MIC fell in the range of 10 to 100 µg/mL (≈ 20.8 to 208 µM) in test [1] and 1 to 10 µg/mL (≈ 2.08 to 20.8 µM) in test [2]. With `CC(Oc1ccc(Oc2ncc(C(F)(F)F)cc2Cl)cc1)C(=O)C(C#N)c1cc(F)ccc1F` (stereo not shown) [compound 26], the MIC in test [1] and in test [2] was 10 to 100 µg/mL (≈ 20.1 to 201 µM) throughout. As to `CC(Oc1ccc(Oc2ccc(C(F)(F)F)cn2)cc1)C(=O)C(C#N)c1cccc(C(F)(F)F)c1` (stereo not shown) [compound 8], the MIC in test [1] was in the range of 10 to 100 µg/mL (≈ 20.2 to 202 µM); in test [2] it was 1 to 10 µg/mL (≈ 2.02 to 20.2 µM).

The MIC is the least concentration at which growth counts as inhibited. A lower MIC goes with greater potency.

For the origin of these results see patent publication EP0768085A1, “ANTIBACTERIAL AGENT” (DAIICHI PHARMACEUTICAL CO., LTD., priority 1994, dated 1996).
